Experimental findings from patent publication US20100069316A1, “TREATMENT FOR MULTIPLE MYELOMA” (Ares Trading S.A., priority 2006, published 2010) are described below.

“Also recorded” adds a separate entry of the source.

Common to all, as to type: cell-based, human
Data set [1] deals with XG-12 myeloma cell line. Nature of the data set: Cell cycle measurement (BrdU/PI, S phase), XG-12. The note with it: day 3 of culture. On the procedure: (§1) The cell cycle distribution of the cell lines was assessed by flow cytometry analysis by propidium iodide (PI) and bromodeoxyuridine (BrdU) double-staining. Thirty minutes before stopping the culture, BrdU (10 μM) were added to the cultures and then the cells were collected by centrifugation, washed twice in phosphate buffer saline (PBS) and fixed in 70% ethanol for 20 minutes at room temperature. After two washes with PBS, cells were resuspended in 50 μL of 3N HCl, 0.5% Tween 20 and incubated 20 minutes at 20° C. to denature DNA. […] The fluorescence of FL1-H (BrdU) and FL2-A (PI) were analyzed on a FACScan flow cytometer using Cell Quest software (Becton Dickinson).
(§2) Two myeloma cell lines (XG-3 and XG-12) that are sensitive to compound A (1-(4-{4-[4-(4-chlorophenyl)-pyrimidin-2-ylamino]-benzoyl}-piperazin-1-yl)-ethanone) were selected for the study. To assess the effect of compound A on myeloma cell survival, the percentage apoptotic cells was determined using binding of annexin V to apoptotic cells. The effect of compound A on the cell cycle was assessed by evaluating the percentage of cells in the S phase of the cell cycle by incorporation of BrdU-FITC. Apoptosis, cell cycle and cell numeration were evaluated daily on a four day culture period on the cell lines using the IC10, IC50 and I90 respective doses of compound A.

Data set [2] relates to myeloma cell lines (XG-3 and XG-12). Nature of the data set: Induction of apoptosis (annexin V) in myeloma cell lines. The note with it: XG-3 and XG-12, IC10, IC50, IC90 doses, four day culture.
Text: (§3) Apoptotic cells were detected using fluorescein isothiocyanate-labelled annexin V (FITC-annexin-V, Boehringer Mannheim). Annexin V has a high affinity for phosphatidylserine present on the outer cytoplasmic membrane of apoptotic cells. Cells were washed, labeled with FITC-annexin-V according to the manufacturer's recommendations and analyzed with a FACScan flow cytometer using Cell Quest software (Becton Dickinson, Moutain View, Calif., USA).
as §2

The subject of another data set is 10 myeloma cell lines. Nature of the data set: Cell proliferation assay, mean over 10 myeloma cell lines. The note with it: mean determined on 10 myeloma cell lines. On the procedure:
Myeloma cells were harvested in the exponential growth phase (at day 3 after culture passage when the cell concentration is around 5×10^5 cells/ml). Cells were washed twice, cultured for 3 hours in RPMI1640 and 10% FCS, washed twice. This makes it possible to remove cell-bound growth factors (in particular recombinant IL-6). Then cells are plated in 96-well flat-bottomed microplates at various concentrations depending on their doubling time: • 5×10^3 cells/well in 100 μl for the cell lines: XG-1, XG-7 • 10^4 cells/well in […] for the cell lines: XG-2, XG-4, XG-6, XG-11, PRMI8226, L363 • 2×10^4 cells/well in 100 μl for the cell lines: XG-3, XG-12, XG-13, XG-14, XG-19, XG-20
The culture medium used were: • PRMI1640, 10% FCS and 0.5 ng/ml of IL-6 for XG-1, XG-2, XG-3, XG-4, XG-6, XG-7, XG-11, XG-12, XG-13, XG-19, XG-20 cells • X-VIVO20 and 0.5 ng/ml IL-6 for XG-14 cells • PRMI1640 and 10% FCS for RPMI8226 and L363 cells
The diluted compounds, DMSO or control culture medium were added in 100 μl at the start of the culture. Three culture wells were done for one compound dilution and the experiments were done twice (finally six culture wells for one compound dilution).
Cells were cultured for 4 days. Eight hours before the end of the culture, 0.5 μCi of tritiated thymidine were added in 50 μl of RPMI1640 and 10% FCS. Cells were then extracted with a cell collector and the thymidine incorporation was determined using a beta cell counter.
For each experiment, the mean tritiated thymidine incorporations (mean values determined on three culture wells) were plotted against the logarithmic concentrations of the compound. The curves were fitted with exponential regression, which was determined using the concentrations defining the inhibition response (usually 3-4 concentrations).
The concentrations yielding 50% and 90% inhibition of the proliferation of myeloma cells were determined with these regression curves.

Data set [3] has as its system non-myeloma bone marrow cells. Put plainly: Ex vivo survival of non-myeloma bone marrow cells. The note with it: bone marrow cells of 10 myeloma patients, 5 days, 1, 3.3, 10 μM. As to the method:
Bone marrow cells from 10 patients with multiple myeloma (5 patients at diagnosis and 5 relapsing patients) were harvested and mononuclear cells isolated by ficoll hypaque centrifugation.
At day 5, cell numbers were counted and the percentage and counts of myeloma cells were determined by FACS staining using an anti-CD138 monoclonal antibody. This made it possible to assay for viable myeloma cells as CD138 is lost on pre-apoptotic myeloma cells (Jourdan, M. et al. (1998) Br. J. Haematol., 100, 637-648). The percentage and count of CD34 hematopoietic progenitors was also determined with an anti-CD34 monoclonal antibody and FACS labeling.
Bone marrow mononuclear cells from 5 patients with newly diagnosed multiple myeloma or from 5 patients with relapsing multiple myeloma were cultured for 5 days with culture medium and 10% fetal calf serum. […] At the end of culture, cells were counted. Viable myeloma cells were determined using FACS labeling with anti-CD138 monoclonal antibody, as well as viable hematopoietic stem cells using an anti-CD34 monoclonal antibody. Results are expressed as the percentage of viable myeloma cells, non-myeloma cells, or CD34 cells compared to the control culture group without inhibitor.

The test system of data set [4] is myeloma cell lines (XG-3 and XG-12). Nature of the data set: Cells in S phase (BrdU) in myeloma cell lines. The note with it: XG-3 and XG-12, IC10, IC50, IC90 doses. As to the method:
as §1, §2

Data set [5] deals with XG-12 myeloma cell line. Put plainly: Detection of apoptosis (FITC-annexin V), XG-12. The note with it: day 3 of culture.
Text: as §3, §2

Another data set has as its system XG-3 myeloma cell line. Put plainly: Detection of apoptosis (FITC-annexin V), XG-3. The note with it: day 3 of culture.
Text: as §3, §2

Setting [6] is: XG-12, compound A at IC50 concentration.
Where [7] appears, read: XG-12, compound A at IC90 concentration.

With `CC(=O)N1CCN(C(=O)c2ccc(Nc3nccc(-c4ccc(Cl)cc4)n3)cc2)CC1` [Compound A, 1-(4-{4-[4-(4-Chloro-phenyl)-pyrimidin-2-ylamino]-benzoyl}-piperazin-1-yl)-ethanone], the figures for the “S phase (%) percentage of cells in the S phase” value in the data set with XG-12 myeloma cell line [1] (setting [6]) and in the data set on XG-12 myeloma cell line [1] (setting [7]) were 37.3% and 6.8%, respectively. In addition, the “induction of apoptosis of myeloma cell lines” value in data set [2] is “induced apoptosis of myeloma cell lines; also recorded: dose- and time-dependent”. Also, the IC50 with 10 myeloma cell lines (Homo sapiens, read-out: mean concentration yielding 50% inhibition) was determined as 3.3 µM. The “mean concentration yielding 10% inhibition” value in the data set with 10 myeloma cell lines amounted to 1 µM. Moreover, the “mean concentration yielding 90% inhibition” value with 10 myeloma cell lines is 10 µM. For the same molecule, in data set [3], the “survival of other (non-myeloma) bone marrow cells” value is on record as “without affecting the survival of other bone marrow cells”. Besides, the “number of cells in the S phase of the cell cycle” value in data set [4] is on record as “induced a decrease in the number of cell in the S phase”. Moreover, the “Annexin V (%) percentage of apoptotic cells” value in the data set with XG-12 myeloma cell line [5] (setting [6]) is 39.5%; with XG-12 myeloma cell line [5] (setting [7]) it was 79.8%; in the data set on XG-3 myeloma cell line (XG-3, compound A at IC10 concentration), 29.2%; in the data set with XG-3 myeloma cell line (XG-3, compound A at IC50 concentration) it was 30.7%; in the data set on XG-3 myeloma cell line (XG-3, compound A at IC90 concentration), 48.2%.
